For one experiment, the system named is HAdV-4 (species E). The experiment is described as follows: Infection assay (hexon staining), HAdV-4. The experiment is classed as cell-based, human adenovirus. As to conditions: 15 µM HD5 or HNP1, A549 cells, hexon staining at ~48 h, vs. no defensin. On the procedure:
(§1) To determine whether sensitivity to α-defensins is a general property of HAdVs, serotypes representative of HAdV species A–F were tested for infectivity in the presence of 15 µM HD5 or HNP1 (Figure 1). Wild type HAdVs rather than vectors were used for these studies, and infectivity was assessed by staining for hexon production. […] These studies indicate that sensitivity to α-defensins is species specific. In addition, particular HAdV serotypes are not equally sensitive to all defensins, indicating defensin sequence specificity as well.
(§2) Figure 1 Sensitivity to neutralization by alpha-defensins is AdV species specific. HAdVs were incubated with 15 µM HD5 (A) or HNP1 (B) and assessed for infectivity on A549 cells. Data are the mean of the percent infectivity compared to control cells infected with each virus in the absence of defensin for at least three independent experiments ± SD. The upper limit for quantification of this assay is 200%. […]
(§3) Prior to use in this assay, each virus stock was titrated on A549 cells. […] In parallel, wells were infected with two-fold serial dilutions of each virus to establish a standard curve for quantification with an upper limit of 200%. […] Total well fluorescence above background was quantified with ImageJ software. For each virus, samples were quantified by nonlinear regression against the standard curve using Prism software (GraphPad Software, Inc., La Jolla, CA).

The test system of a further experiment is HAdV-3. The experiment is described as follows: Infection assay (hexon staining), HAdV-3. The experiment is classed as cell-based, human adenovirus. To be noted: 15 µM HNP1, A549 cells, vs. no defensin. The procedure:
as §1, §2, §3

A further experiment deals with HAdV-12. Description: Infection assay (hexon staining), HAdV-12. Format: cell-based, human adenovirus. To be noted: 15 µM HNP1, A549 cells, vs. no defensin. The procedure:
as §1, §2, §3

The next experiment deals with HAdV-14. Description: Infection assay (hexon staining), HAdV-14. The experiment is classed as cell-based, human adenovirus. As to conditions: 15 µM HNP1, A549 cells, vs. no defensin. The procedure: as §1, §2, §3
In another experiment the test system is HAdV-16. Description: Infection assay (hexon staining), HAdV-16. The experiment is classed as cell-based, human adenovirus. As to conditions: 15 µM HNP1, A549 cells, vs. no defensin. The procedure: as §1, §2, §3
In experiment [1] the test system is Serotypes sensitive to HD5. Description: Infection assay (hexon staining), serotypes sensitive to HD5. Format: cell-based, human adenovirus. To be noted: 15 µM HNP1, A549 cells, vs. no defensin. The procedure: as §1, §2, §3
Another experiment relates to HAdV-5. As to conditions: low micromolar concentrations; ref [13]; cited from earlier work.

In the case of “HNP1: human alpha-defensin; synthetic, obtained from Peptides International”, the “sensitivity to neutralization (infectivity)” value was “resistant” with HAdV-4 (species E) and “generally sensitive” in experiment [1]. For the same substance, the inhibition of infection entry with HAdV-3, in the experiment with HAdV-12, in the experiment with HAdV-14 and in the experiment on HAdV-16 was “only modest inhibition” throughout. Besides, in the experiment with HAdV-5, the “inhibition of HAdV-5 infection” value is “significantly inhibit HAdV-5 infection at low micromolar concentrations”.

The values above are taken from PMC2891831, “Insight into the Mechanisms of Adenovirus Capsid Disassembly from Studies of Defensin Neutralization” (PLoS Pathogens, 2010).
